The values that follow come from patent US20130022620A1, “ASSAYS AND METHODS PERTAINING TO PRE-AMYLOID INTERMEDIATES” (priority 2011, published 2013).

One series deals with rat INS-1 β-cells. Kind of series: AlamarBlue cell viability assay of β-cells. In kind it is cell-based. The note with it: for onset and duration of toxicity compared to wild type: side-by-side with kinetics, 20 uM for the Ser-20 mutants. On the procedure: Transformed rat insulinoma-1 (INS-1) β-cells (which express RAGE) are a pancreatic beta cell line commonly used for studies of h-IAPP induced toxicity. INS-1 cells were grown in RPMI 1640 supplemented with 10% fetal bovine serum (FBS), 11 mM glucose, 10 mM Hepes, 2 mM L-glutamine, 1 mM sodium pyruvate, 50 μM β-mercaptoethanol, 100 U/ml penicillin, and […] streptomycin. Cells were maintained at 37° C./5% CO2.
Cyto-toxicity was measured by AlamarBlue assay. INS-1 β-cells were seeded at a density of 30,000 cells per well in 96-well plates and cultured for 24 hours prior to stimulation with IAPP. Human and rat IAPP were dissolved and incubated in 16 mM tris HCl (pH 7.4, 25° C.) prior to cell stimulation. AlamarBlue was diluted ten-fold in culture media and cells were incubated for 5 hours at 37° C. Fluorescence (excitation 530; emission 590 nm) was measured on a Beckman Coulter DTX880 fluorescent plate reader. Values calculated were relative to those of control cells treated with buffer only. All values represent means±SEM (n=3).
Changes in cell morphology were examined by light microscopy to provide a second method of evaluating cell viability. Transformed rat INS-1 beta cells were photographed immediately prior to assessment of toxicity by Alamar blue cell viability assays. Images were taken using an Olympus BX-61 light microscope.
Background: The colour change of resazurin is a common sign of viable cells or microbes.

The nature of series [1]: Thioflavin-T kinetics and TEM of amyloid formation by IAPP peptides. The class given is physicochemical. The procedure: Thioflavin-T fluorescence was used to monitor the time course of h-IAPP amyloid formation in the presence and absence of sRAGE. To identify which form(s) of h-IAPP interact with RAGE, sRAGE was added to h-IAPP at various time points during the h-IAPP amyloid formation reaction. Aliquots of the reaction mixture were analyzed by adding 100 uL aliquots of the amyloid formation reaction to 96-well plates containing 8 uL of 60 uM thioflavin-T solution at various incubation times after initiation of the amyloid formation reaction. Fluorescence was measured using a Beckman Coulter DTX880 fluorescent plate reader (excitation: 445 nm and emission: 485 nm). Final solution conditions contained 16 mM tris HCl and […] thioflavin-T (pH 7.4). […] All values represent means±SEM (n=3).
Transient kinetic species of h-IAPP were characterized by TEM. TEM images confirm the presence or absence of amyloid which were indicated by thioflavin-T fluorescence. Aliquots (4 μl) were removed from the reaction mixtures monitored by thioflavin-T assays, placed on a carbon-coated 200-mesh copper grid and negatively stained with saturated uranyl acetate. The samples were imaged with a Philips CM12 transmission electron microscope at the New York University electron microscopy core facility. Final solution conditions contained 16 mM tris HCl (pH 7.4).

Series [2] concerns the target T1, sRAGE (Homo sapiens, UniProt Q15109).
T1 construct: the soluble extracellular domain of RAGE (sRAGE); made in house; host or cells: Sf9 insect cells (baculovirus)
Kind of series: Difference CD of IAPP peptides with sRAGE. In kind it is binding. The note with it: end point of the reactions. On the procedure:
CD measurements of IAPP, sRAGE and IAPP/sRAGE reactions were taken at various incubation times. Far-UV CD experiments monitor the development of secondary structure of h-IAPP species and give insight into the conformational requirement for IAPP/RAGE-binding. All CD experiments were performed on an Applied Photophysics circular dichroism spectrophotometer by directly transferring 300 μL of peptide solution from kinetic assays into a 0.1 cm quartz cuvette a few minutes prior to data collection. The CD spectra for sRAGE and tris HCl buffer was subtracted from all RAGE/IAPP mixtures. The final far-UV CD data was collected over the range of 190 to 260 nm. Final solution conditions contained 16 mM tris HCl (pH 7.4).

The test system of series [3] is MCP-1 and IL-1β mRNA expression. Kind of series: qRT-PCR of MCP-1 and IL-1β mRNA in smooth muscle cells. The note with it: peptide stimulation. In kind it is cell-based, mouse. On the procedure:
Mouse vascular SMCs were cultured from the aortas of 10-week-old male mice using a modification of the procedure of Tarvo and Barret. See Tarvo et al. Blood Vessels. 1980; 17:110-116. SMCs were cultured following an explant protocol in accordance with institutional guidelines. Cultures were composed of 95% SM-α-actin positivity based on immunostaining.
(§1) Assays for qRT-PCR were carried out in 6-well plates. Total cellular RNA was isolated from h-IAPP stimulated β-cells using Qiagen RNA isolation kit, and the quality of RNA samples was determined by measurement of 260:280 ratio. Only samples with a 260:280 ratio of 2.0 or higher were used for reverse transcription. RNA samples were also treated by RNAse-free DNAse to avoid genomic DNA contamination. One microgram of RNA from each sample was reverse-transcribed to cDNA using MCP-1 and IL-1β primers. Non-template negative controls were also performed to monitor non-specific reactions. RNA isolated from rat IAPP and non-h-IAPP treated beta cells were used as negative controls. Equal amounts of RNA were used in each qRT-PCR reaction, and 18S was used as the internal control for amplification at the same time. qRT-PCR reactions were carried out using an Applied Biosystems 7500 RealTime PCR machine. The relative mRNA contents were normalized using 18S and quantification was carried out using qRT-PCR Quantifier Software.
(Quantitative PCR measures a nucleic acid by following its amplification.)

Series [4] has the same test system. In words: qRT-PCR of MCP-1 and IL-1β mRNA in β-cells. In kind it is cell-based, rat. The note with it: β-cells stimulated with peptide. On the procedure:
as §1

Series [5] deals with T1, sRAGE. In words: Tryptophan fluorescence quenching assay of sRAGE binding. The note with it: sRAGE added at different time points of the reaction, 1:1 molar ratio. An excerpt:
The quenching of tryptophan fluorescence indicates binding. Fluorescence measurements were made at right angle in a […] dual path length quartz cuvette, using a Photon Technology International fluorescent spectrometer (280 nm excitation and 350 nm emission). Background fluorescence from buffer and IAPP peptides were negligible. The fluorescence quantum yield reported for each time point is an average of 20 reads over 20 seconds (2.5 nm bandwidth and 1 second integration time). Final solution conditions contained 16 mM tris HCl (pH 7.4).

Series [6] concerns the target T2, soluble RAGE (sRAGE), soluble extracellular domain of the receptor for advanced glycation endproducts (human, UniProt Q15109 23-342, glycosylated (heterogeneity in GlcN and GlcNAc glycosylation by MALDI-TOF)).
T2 construct: The purification protocol gives two species, full length (36,254 Da) and C-truncated (34,710 Da); also called human sRAGE
Kind of series: tryptophan fluorescence quenching; sRAGE added at different time points of the aggregation reaction.

Series [7] addresses T2, soluble RAGE (sRAGE), soluble …. Kind of series: tryptophan fluorescence quenching. An excerpt:
(E) Trp fluorescence quenching experiments.
Binding of ligands to this region should alter the environment of the tryptophans and lead to a change in their fluorescent quantum yield. Thus, the quenching of tryptophan fluorescence can be used to monitor binding.

Positions of bridges follow the written chain, without caps; N, C: chain ends. No end group written: not given here.

T2 sequence (Q15109 23-342): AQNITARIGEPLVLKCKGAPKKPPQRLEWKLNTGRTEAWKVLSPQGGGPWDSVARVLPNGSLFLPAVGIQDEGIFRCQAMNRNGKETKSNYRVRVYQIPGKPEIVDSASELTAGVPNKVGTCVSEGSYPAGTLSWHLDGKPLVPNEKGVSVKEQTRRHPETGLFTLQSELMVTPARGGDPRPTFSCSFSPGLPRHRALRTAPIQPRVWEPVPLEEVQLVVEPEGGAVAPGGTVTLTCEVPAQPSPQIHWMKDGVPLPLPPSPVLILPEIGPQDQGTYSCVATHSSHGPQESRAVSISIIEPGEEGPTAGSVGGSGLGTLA
T1 sequence (Q15109 23-342): as above

For “3×L-IAPP: h-IAPP triple mutant in which leucines replaced F15, F23 and Y37 (KCNTATCATQRLANLLVHSSNNLGAILSSTNVGSNTL-NH2; disulfide 2-7; N-terminus assumed; SMILES CC[C@H](C)[C@H](NC(=O)[C@H](C)NC(=O)CNC(=O)[C@H](CC(C)C)NC(=O)[C@H](CC(N)=O)NC(=O)[C@H](CC(N)=O)NC(=O)[C@H](CO)NC(=O)[C@H](CO)NC(=O)[C@H](Cc1c[nH]cn1)NC(=O)[C@@H](NC(=O)[C@H](CC(C)C)NC(=O)[C@H](CC(C)C)NC(=O)[C@H](CC(N)=O)NC(=O)[C@H](C)NC(=O)[C@H](CC(C)C)NC(=O)[C@H](CCCNC(=N)N)NC(=O)[C@H](CCC(N)=O)NC(=O)[C@@H](NC(=O)[C@H](C)NC(=O)[C@@H]1CSSC[C@H](NC(=O)[C@@H](N)CCCCN)C(=O)N[C@@H](CC(N)=O)C(=O)N[C@@H]([C@@H](C)O)C(=O)N[C@@H](C)C(=O)N[C@@H]([C@@H](C)O)C(=O)N1)[C@@H](C)O)C(C)C)C(=O)N[C@@H](CC(C)C)C(=O)N[C@@H](CO)C(=O)N[C@@H](CO)C(=O)N[C@H](C(=O)N[C@@H](CC(N)=O)C(=O)N[C@H](C(=O)NCC(=O)N[C@@H](CO)C(=O)N[C@@H](CC(N)=O)C(=O)N[C@H](C(=O)N[C@@H](CC(C)C)C(N)=O)[C@@H](C)O)C(C)C)[C@@H](C)O; UniProt P10997 34-70, looked up, variant F15L F23L Y37L)”, in the series with rat INS-1 β-cells, the “onset and duration of toxicity compared to wild type” value is “longer duration of toxicity than observed with wild type”. Further, the “amyloid formation, slower than wild type” value in series [1] (triple mutant, leucines at positions 15, 23 and 37) was 6 fold.
For the molecule “S20K-IAPP: h-IAPP with Ser-20 substituted by lysine (KCNTATCATQRLANFLVHSKNNFGAILSSTNVGSNTY-NH2; disulfide 2-7; N-terminus assumed; SMILES CC[C@H](C)[C@H](NC(=O)[C@H](C)NC(=O)CNC(=O)[C@H](Cc1ccccc1)NC(=O)[C@H](CC(N)=O)NC(=O)[C@H](CC(N)=O)NC(=O)[C@H](CCCCN)NC(=O)[C@H](CO)NC(=O)[C@H](Cc1c[nH]cn1)NC(=O)[C@@H](NC(=O)[C@H](CC(C)C)NC(=O)[C@H](Cc1ccccc1)NC(=O)[C@H](CC(N)=O)NC(=O)[C@H](C)NC(=O)[C@H](CC(C)C)NC(=O)[C@H](CCCNC(=N)N)NC(=O)[C@H](CCC(N)=O)NC(=O)[C@@H](NC(=O)[C@H](C)NC(=O)[C@@H]1CSSC[C@H](NC(=O)[C@@H](N)CCCCN)C(=O)N[C@@H](CC(N)=O)C(=O)N[C@@H]([C@@H](C)O)C(=O)N[C@@H](C)C(=O)N[C@@H]([C@@H](C)O)C(=O)N1)[C@@H](C)O)C(C)C)C(=O)N[C@@H](CC(C)C)C(=O)N[C@@H](CO)C(=O)N[C@@H](CO)C(=O)N[C@H](C(=O)N[C@@H](CC(N)=O)C(=O)N[C@H](C(=O)NCC(=O)N[C@@H](CO)C(=O)N[C@@H](CC(N)=O)C(=O)N[C@H](C(=O)N[C@@H](Cc1ccc(O)cc1)C(N)=O)[C@@H](C)O)C(C)C)[C@@H](C)O; UniProt P10997 34-70, looked up, variant S20K)”, in the series on rat INS-1 β-cells, the “onset and duration of toxicity compared to wild type” value is “shifts the onset of toxicity to later time points and increases its duration”. In addition, the “rate of aggregation compared to wild type” value in series [1] (20 uM, pH 7.4 25° C.) is given as “slower aggregation rate”.
With “rat IAPP: non-amyloidogenic, non-toxic rat IAPP used as negative control”, in the series with rat INS-1 β-cells (peptide incubated in buffer at room temperature for various times, then applied to INS-1 β-cells), the “cell toxicity (AlamarBlue cell viability, light microscopy)” value is “No toxicity was observed at any time point”. Besides, the “amyloid formation (thioflavin-T)” value in series [1] (peptide by itself) is “does not form amyloid at any time point”. Besides, in the series with sRAGE [2], the “interaction with sRAGE (difference CD)” value was “does not interact”. Moreover, in series [3], the “MCP-1 and IL-1β mRNA expression in smooth muscle cells” value was “rat IAPP does not”. In addition, the “MCP-1 and IL-1β mRNA expression” value in series [4] is “does not induce up-regulation”. Further, in the series with sRAGE [5], the “binding to sRAGE (tryptophan fluorescence quenching)” value is recorded as “No binding”.

B1: I26P-IAPP (I26P point mutant of human IAPP) (peptide)
peptide: KCNTATCATQRLANFLVHSSNNFGAPLSSTNVGSNTY-NH2
modifications: disulfide 2-7; N-terminus assumed
SMILES: CC(C)C[C@H](NC(=O)[C@H](CCCNC(=N)N)NC(=O)[C@H](CCC(N)=O)NC(=O)[C@@H](NC(=O)[C@H](C)NC(=O)[C@@H]1CSSC[C@H](NC(=O)[C@@H](N)CCCCN)C(=O)N[C@@H](CC(N)=O)C(=O)N[C@@H]([C@@H](C)O)C(=O)N[C@@H](C)C(=O)N[C@@H]([C@@H](C)O)C(=O)N1)[C@@H](C)O)C(=O)N[C@@H](C)C(=O)N[C@@H](CC(N)=O)C(=O)N[C@@H](Cc1ccccc1)C(=O)N[C@@H](CC(C)C)C(=O)N[C@H](C(=O)N[C@@H](Cc1c[nH]cn1)C(=O)N[C@@H](CO)C(=O)N[C@@H](CO)C(=O)N[C@@H](CC(N)=O)C(=O)N[C@@H](CC(N)=O)C(=O)N[C@@H](Cc1ccccc1)C(=O)NCC(=O)N[C@@H](C)C(=O)N1CCC[C@H]1C(=O)N[C@@H](CC(C)C)C(=O)N[C@@H](CO)C(=O)N[C@@H](CO)C(=O)N[C@H](C(=O)N[C@@H](CC(N)=O)C(=O)N[C@H](C(=O)NCC(=O)N[C@@H](CO)C(=O)N[C@@H](CC(N)=O)C(=O)N[C@H](C(=O)N[C@@H](Cc1ccc(O)cc1)C(N)=O)[C@@H](C)O)C(C)C)[C@@H](C)O)C(C)C
notes: also called nontoxic, aggregation-prone I26P-IAPP variant of h-IAPP
Take B1: the binding result in series [6] is on record as “no binding”.

B2: rat IAPP (peptide, UniProt P12969 38-74, looked up)
peptide: KCNTATCATQRLANFLVRSSNNLGPVLPPTNVGSNTY-NH2
modifications: disulfide 2-7
notes: mature; also called non-toxic rat IAPP; non-amyloidogenic rat IAPP
Take B2: the binding result in series [7] was “no binding (tested: 20 µM rat IAPP, 1:1 molar ratio)”.
